Values quoted from earlier work, collected in patent US20050085455A1, “Photodynamic therapy for local adipocyte reduction” (Light Sciences Corporation, priority 2003, published 2005).

Conditions: systemically administered sensitizer in clinical use; for duration of skin sensitization: result in words

Compound	duration of skin sensitization	duration of photosensitivity (skin photosensitivity)
CCOC(=O)C1=Cc2c3nc(cc4nc(cc5[n-]c(cc6[n-]c2c(C)c6CC)c(C)c5CC)C(C)=C4CC)[C@@H](C)[C@]13CC.[Cl-].[Cl-].[Sn] (racemic) [Purlytin]	several weeks	–
Oc1cccc(-c2c3nc(c(-c4cccc(O)c4)c4ccc([nH]4)c(-c4cccc(O)c4)c4nc(c(-c5cccc(O)c5)c5ccc2[nH]5)CC4)C=C3)c1 [Foscan]	several weeks	–
sodium porfimer [Photophrin]	–	up to 6 weeks
